Laboratory results: ChEMBL document CHEMBL1201862, “PubChem BioAssay data set” (2004)
Calls of active or inactive are those of the source.

Key:
[1] = target: T1, Sentrin-specific protease 6 (Homo sapiens, UniProt Q9GZR1); type: functional;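 further: Luminescence-based dose-response confirmatory assay of SENP6 inhibition, following up an ultra-high-throughput screen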
T1 sequence (Q9GZR1 whole entry): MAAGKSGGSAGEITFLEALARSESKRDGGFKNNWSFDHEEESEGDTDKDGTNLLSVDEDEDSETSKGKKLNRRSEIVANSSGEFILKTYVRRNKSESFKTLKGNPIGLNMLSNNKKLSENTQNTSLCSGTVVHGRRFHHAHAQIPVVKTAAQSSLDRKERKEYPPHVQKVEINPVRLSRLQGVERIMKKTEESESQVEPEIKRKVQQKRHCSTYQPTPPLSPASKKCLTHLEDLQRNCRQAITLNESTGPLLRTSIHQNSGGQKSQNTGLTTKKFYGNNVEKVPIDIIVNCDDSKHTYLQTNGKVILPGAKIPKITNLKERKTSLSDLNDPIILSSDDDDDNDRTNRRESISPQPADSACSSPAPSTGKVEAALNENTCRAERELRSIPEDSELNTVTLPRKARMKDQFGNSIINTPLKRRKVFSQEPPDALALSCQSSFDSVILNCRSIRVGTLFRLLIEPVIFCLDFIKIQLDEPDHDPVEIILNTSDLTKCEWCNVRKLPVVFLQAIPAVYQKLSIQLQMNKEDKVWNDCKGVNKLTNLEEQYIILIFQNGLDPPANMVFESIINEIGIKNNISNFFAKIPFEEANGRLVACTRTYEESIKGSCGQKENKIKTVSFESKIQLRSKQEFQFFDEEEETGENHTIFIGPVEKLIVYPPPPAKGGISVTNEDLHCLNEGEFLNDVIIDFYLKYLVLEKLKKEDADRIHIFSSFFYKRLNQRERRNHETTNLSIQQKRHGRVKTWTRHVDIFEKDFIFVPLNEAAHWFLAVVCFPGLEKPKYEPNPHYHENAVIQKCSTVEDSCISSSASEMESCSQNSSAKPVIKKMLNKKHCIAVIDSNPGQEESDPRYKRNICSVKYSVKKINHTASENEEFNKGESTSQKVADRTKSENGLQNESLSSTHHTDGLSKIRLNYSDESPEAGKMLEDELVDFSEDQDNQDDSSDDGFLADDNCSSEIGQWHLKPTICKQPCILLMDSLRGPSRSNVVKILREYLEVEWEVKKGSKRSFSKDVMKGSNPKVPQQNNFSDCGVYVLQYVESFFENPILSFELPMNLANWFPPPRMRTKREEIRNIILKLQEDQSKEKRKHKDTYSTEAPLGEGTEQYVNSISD

Caspase-3 = target: T2, Caspase-3 (Homo sapiens, UniProt P42574); type: functional;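 further: Dose-response selectivity test against caspase-3 for candidate inhibitors of sentrin-specific proteases (SENPs)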
T2 sequence (P42574 whole entry): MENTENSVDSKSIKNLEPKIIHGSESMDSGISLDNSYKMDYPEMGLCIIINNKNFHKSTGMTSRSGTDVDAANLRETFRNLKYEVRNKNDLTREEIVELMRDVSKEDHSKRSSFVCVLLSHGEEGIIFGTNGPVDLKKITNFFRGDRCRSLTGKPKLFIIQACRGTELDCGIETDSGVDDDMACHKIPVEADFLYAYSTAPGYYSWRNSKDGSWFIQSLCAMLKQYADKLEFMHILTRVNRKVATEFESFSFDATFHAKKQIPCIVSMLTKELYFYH

[2] = target: T3, Sentrin-specific protease 7 (Homo sapiens, UniProt Q9BQF6); type: functional;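 further: Luminescence-based dose-response confirmation of ultra-high-throughput screening hits, measuring inhibition of SENP7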
T3 sequence (Q9BQF6 whole entry): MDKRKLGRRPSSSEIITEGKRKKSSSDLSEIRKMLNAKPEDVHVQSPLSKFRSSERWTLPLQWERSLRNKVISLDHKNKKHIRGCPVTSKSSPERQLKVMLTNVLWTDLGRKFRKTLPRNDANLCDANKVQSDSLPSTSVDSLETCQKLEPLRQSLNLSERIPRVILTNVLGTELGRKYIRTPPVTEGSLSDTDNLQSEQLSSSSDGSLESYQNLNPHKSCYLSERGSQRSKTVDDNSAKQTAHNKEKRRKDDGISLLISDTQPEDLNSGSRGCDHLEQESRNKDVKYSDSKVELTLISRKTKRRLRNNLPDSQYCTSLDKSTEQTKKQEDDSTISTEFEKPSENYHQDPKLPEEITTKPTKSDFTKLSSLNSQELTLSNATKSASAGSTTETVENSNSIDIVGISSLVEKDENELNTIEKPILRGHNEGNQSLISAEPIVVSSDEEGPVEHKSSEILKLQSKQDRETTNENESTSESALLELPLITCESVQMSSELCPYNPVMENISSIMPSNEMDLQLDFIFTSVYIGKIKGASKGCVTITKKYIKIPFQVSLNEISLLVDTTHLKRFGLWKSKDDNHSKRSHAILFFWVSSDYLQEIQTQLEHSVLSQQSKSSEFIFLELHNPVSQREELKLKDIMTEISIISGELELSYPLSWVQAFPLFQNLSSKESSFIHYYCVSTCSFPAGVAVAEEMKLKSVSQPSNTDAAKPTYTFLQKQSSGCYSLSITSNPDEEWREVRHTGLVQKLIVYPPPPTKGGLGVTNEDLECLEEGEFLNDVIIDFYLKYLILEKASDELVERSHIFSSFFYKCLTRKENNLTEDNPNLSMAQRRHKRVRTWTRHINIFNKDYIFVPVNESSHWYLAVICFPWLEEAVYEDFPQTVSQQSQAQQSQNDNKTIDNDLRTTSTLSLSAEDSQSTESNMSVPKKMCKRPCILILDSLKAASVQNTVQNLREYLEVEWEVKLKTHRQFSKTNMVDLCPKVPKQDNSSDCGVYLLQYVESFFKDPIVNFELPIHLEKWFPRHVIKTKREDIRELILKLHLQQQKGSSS

[3] = target: T4, Sentrin-specific protease 8 (Homo sapiens, UniProt Q96LD8); type: functional;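 further: luminescence read-out of SENP8 inhibition, dose-response confirmation following an ultra-high-throughput screen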
T4 sequence (Q96LD8 whole entry): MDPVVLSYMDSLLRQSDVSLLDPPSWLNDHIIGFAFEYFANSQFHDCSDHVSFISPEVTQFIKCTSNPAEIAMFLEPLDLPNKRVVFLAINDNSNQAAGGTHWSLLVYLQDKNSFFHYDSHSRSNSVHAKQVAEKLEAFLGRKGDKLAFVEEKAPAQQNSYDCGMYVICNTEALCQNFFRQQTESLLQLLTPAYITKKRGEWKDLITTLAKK

[4] = Counterscreen for activators of the function of SWI/SNF related, matrix associated, actin dependent regulator of chromatin, subfamily a, member 2 (SMARCA2, BRM): Luminescence-based cell-based high throughput dose response assay to identify non-selective compounds using the VP16 reporter assay.; type: functional
[5] = target: SWI/SNF-related matrix-associated actin-dependent regulator of chromatin subfamily A member 2 (Homo sapiens, UniProt P51531); assay: Luminescence-based cell-based high throughput dose response assay to identify activators of the function of SWI/SNF related, matrix associated, actin dependent regulator of chromatin, subfamily a, member 2 (SMARCA2, BRM).; type: functional
cells [6] = type: functional, cell-based
cells [7] = type: functional, cell-based; remark: listed apart in the source
[8] = target: T5, Trace amine-associated receptor 1 (Homo sapiens, UniProt Q96RJ0); assay: Counterscreen for agonists of the human trace amine associated receptor 1 (hTAAR1): Fluorescence-based cell-based high throughput dose response assay to identify hTAAR1 agonist that also desensitize TAAR1 receptor response.; type: functional
T5 sequence (Q96RJ0 whole entry): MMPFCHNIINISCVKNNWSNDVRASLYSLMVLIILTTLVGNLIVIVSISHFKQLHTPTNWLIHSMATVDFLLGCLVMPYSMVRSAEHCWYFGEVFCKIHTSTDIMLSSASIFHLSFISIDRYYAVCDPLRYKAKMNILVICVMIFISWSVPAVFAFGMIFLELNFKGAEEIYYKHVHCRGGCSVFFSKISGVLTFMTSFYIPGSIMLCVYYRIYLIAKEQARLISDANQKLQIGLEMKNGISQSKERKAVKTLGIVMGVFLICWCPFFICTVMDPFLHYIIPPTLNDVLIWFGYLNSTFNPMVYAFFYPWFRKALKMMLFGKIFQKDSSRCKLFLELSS

[9] = target: T5, Trace amine-associated receptor 1; assay: Fluorescence-based cell-based high throughput dose response assay to identify agonists of the human trace amine associated receptor 1 (TAAR1).; type: functional
[10] = viability loss in HEK293 cells – cell-based, plate reader, cherry-picked samples, cytotoxicity control, dose response (AID 743446); type: functional
[11] = toxicity toward HepG2 liver cells – cell-based, plate reader, cherry-pick, antagonist series, cytotoxicity control, dose response (AID 743416); type: functional
[12] = blockade of melanocortin 4 receptor signaling – cell-based, plate reader, cherry pick, counter-screen for LGR2 antagonist project, dose response (AID 743444); type: functional;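 further: transfected HEK 293 cells stimulated with alpha-MSH peptide; potency of inhibitors of the alpha-MSH evoked signal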
[13] = blockers of bursicon-stimulated LGR2 cAMP reporter – cell-based, HEK293, CRE-luciferase reporter, cherry pick, set 2, dose response (AID 743343); type: functional;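 further: transfected cells were stimulated with diluted bursicon conditioned medium after compound addition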
Vero = assay: viability loss in Vero cells – cell-based, plate reader, cherry-pick samples, cytotoxicity control, dose response (AID 687020); type: functional; settings: Chlorocebus sabaeus
Galanin receptor type 3 = Galanin receptor type 3 (Homo sapiens, UniProt O60755); assay: Fluorescence-based cell-based primary high throughput dose response assay to identify antagonists of the Galanin Receptor 3 (GalR3).; type: functional
cells [14] = type: functional, cell-based; settings: HEK-CNG
[15] = target: Histone-lysine N-methyltransferase NSD2 (Homo sapiens, UniProt O96028); type: biochemical
Streptokinase A = target: T6, Streptokinase A (Streptococcus pyogenes serotype M1, UniProt P10520); assay: viability-normalized secreted streptokinase activity reduction – plasminogen activation absorbance, OD405, dose response (AID 1914); type: functional, Streptococcus pyogenes M1 GAS;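 further: secreted streptokinase activity via plasminogen activation per viability signal from cell pellet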
T6 sequence (P10520 whole entry): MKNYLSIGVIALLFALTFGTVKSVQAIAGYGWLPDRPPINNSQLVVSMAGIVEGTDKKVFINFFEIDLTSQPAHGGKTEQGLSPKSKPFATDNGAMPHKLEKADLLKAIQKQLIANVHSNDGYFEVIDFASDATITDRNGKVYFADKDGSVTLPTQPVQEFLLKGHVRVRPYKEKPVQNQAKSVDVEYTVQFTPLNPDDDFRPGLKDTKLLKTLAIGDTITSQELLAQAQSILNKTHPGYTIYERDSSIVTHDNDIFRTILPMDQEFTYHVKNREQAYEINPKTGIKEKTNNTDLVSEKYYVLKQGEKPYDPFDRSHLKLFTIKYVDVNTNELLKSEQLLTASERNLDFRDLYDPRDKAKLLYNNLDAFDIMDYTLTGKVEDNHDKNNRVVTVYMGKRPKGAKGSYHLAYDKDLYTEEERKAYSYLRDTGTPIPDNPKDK

[16] = tested on: Streptococcus sp. 'group A'; assay: Streptococcus pyogenes SK(-)GAS viability under kanamycin – luminescence, BacTiterGlo, confirmation, counter-screen for streptokinase expression inhibitor project, dose response (AID 1900); type: functional, organism-based
Streptococcus = assay: GAS UMAA2166 growth inhibition – luminescence, BacTiterGlo, counter-screen for streptokinase expression inhibitor project, dose response (AID 1915); type: functional, organism-based;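 further: potency for reduction of bacterial viability or growth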

SWI/SNF-related matrix-associated actin-dependent regulator of chromatin subfamily A member 2, sequence (P51531 whole entry): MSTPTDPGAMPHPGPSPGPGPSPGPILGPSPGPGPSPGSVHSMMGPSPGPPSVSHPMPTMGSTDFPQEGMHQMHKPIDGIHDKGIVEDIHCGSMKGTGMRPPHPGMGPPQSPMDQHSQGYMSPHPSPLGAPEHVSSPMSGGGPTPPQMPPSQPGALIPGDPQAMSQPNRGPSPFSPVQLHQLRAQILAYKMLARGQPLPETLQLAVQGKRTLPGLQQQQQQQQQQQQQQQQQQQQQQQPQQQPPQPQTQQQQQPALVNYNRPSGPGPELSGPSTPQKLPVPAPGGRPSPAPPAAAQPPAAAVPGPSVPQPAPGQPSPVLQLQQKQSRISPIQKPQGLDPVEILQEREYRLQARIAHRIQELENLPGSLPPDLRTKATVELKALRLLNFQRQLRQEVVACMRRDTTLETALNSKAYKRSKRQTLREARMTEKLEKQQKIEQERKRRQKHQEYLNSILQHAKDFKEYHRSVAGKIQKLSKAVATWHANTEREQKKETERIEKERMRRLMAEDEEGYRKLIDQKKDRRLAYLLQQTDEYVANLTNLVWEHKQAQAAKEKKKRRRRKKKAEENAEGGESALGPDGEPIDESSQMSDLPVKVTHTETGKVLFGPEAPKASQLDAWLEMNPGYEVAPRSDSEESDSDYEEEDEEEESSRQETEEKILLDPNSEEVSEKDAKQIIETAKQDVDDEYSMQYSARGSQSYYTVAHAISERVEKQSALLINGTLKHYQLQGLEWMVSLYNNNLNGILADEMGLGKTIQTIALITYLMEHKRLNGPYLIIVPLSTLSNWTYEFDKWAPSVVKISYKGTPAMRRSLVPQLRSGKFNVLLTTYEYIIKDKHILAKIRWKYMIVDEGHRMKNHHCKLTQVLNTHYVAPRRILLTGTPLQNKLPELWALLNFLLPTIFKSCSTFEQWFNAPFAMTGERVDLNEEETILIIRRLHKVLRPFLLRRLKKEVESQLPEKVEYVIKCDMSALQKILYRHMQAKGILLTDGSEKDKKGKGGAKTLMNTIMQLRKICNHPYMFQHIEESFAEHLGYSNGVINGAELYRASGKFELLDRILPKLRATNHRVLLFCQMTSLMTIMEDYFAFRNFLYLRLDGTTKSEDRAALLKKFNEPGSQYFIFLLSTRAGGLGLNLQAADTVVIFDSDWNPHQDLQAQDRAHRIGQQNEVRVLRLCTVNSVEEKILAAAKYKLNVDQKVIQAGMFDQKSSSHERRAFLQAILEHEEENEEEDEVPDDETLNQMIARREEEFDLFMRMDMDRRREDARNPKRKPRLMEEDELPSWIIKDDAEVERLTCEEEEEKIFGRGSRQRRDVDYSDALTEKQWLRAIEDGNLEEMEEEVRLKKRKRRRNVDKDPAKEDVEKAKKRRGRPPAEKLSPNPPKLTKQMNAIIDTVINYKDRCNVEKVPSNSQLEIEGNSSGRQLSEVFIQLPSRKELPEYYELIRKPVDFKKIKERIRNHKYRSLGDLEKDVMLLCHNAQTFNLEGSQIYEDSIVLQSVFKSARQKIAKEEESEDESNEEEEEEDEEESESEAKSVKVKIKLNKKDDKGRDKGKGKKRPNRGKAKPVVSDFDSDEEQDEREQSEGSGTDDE
Histone-lysine N-methyltransferase NSD2, sequence (O96028 whole entry): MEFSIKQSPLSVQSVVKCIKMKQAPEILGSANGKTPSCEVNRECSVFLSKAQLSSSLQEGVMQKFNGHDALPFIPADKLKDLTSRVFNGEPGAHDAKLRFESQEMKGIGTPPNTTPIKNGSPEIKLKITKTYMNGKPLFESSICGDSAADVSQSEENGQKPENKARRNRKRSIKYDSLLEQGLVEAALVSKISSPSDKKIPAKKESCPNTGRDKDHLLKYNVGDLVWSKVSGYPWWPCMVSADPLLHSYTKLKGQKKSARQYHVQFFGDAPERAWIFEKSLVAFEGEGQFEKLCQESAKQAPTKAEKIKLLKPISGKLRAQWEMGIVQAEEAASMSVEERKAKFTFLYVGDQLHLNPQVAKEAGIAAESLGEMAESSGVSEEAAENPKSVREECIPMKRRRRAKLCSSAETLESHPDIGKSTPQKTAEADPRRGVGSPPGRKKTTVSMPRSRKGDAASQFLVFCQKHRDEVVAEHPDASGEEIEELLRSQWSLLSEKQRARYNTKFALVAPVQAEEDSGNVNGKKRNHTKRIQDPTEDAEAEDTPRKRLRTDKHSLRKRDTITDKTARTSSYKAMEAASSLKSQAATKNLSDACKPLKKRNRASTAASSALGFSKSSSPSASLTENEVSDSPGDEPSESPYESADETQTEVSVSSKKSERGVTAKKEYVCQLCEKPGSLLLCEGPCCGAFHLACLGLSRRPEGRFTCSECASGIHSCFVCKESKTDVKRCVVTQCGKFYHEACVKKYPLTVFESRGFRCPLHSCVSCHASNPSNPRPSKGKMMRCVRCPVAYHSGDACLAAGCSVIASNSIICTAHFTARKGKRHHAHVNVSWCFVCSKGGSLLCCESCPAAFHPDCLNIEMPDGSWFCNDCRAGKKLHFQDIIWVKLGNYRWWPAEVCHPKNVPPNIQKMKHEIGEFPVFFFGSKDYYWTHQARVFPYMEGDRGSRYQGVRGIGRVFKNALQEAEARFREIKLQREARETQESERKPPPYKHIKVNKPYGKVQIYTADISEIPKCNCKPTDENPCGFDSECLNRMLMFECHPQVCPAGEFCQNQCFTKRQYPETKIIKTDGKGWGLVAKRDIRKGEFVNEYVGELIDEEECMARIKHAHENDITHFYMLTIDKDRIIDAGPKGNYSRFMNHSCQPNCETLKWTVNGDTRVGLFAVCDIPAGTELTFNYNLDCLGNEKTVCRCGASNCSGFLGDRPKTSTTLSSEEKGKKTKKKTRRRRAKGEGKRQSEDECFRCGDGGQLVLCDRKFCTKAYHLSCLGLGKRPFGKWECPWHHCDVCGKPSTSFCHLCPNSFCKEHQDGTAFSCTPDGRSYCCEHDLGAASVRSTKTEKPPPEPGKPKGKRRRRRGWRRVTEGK
Galanin receptor type 3, sequence (O60755 whole entry): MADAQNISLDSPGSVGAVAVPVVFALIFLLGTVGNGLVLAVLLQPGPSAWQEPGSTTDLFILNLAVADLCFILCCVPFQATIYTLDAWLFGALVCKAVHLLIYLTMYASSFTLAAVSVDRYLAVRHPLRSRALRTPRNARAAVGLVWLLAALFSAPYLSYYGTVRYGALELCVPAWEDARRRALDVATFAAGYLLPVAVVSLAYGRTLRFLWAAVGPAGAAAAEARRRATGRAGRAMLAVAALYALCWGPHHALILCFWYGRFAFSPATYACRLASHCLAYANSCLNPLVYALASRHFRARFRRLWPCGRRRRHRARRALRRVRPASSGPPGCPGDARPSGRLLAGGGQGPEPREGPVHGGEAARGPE

## Fc1cccc(F)c1-c1nc(-c2ccc(Cl)cc2)no1
[1]
  IC50: 5.78 µM (active)
Caspase-3
  IC50: 25.2 µM (active)
[2]
  IC50: 3.99 µM (active)
[3]
  IC50: 21.8 µM (active)
[4]
  EC50: > 91.2 µM (inactive)
[5]
  EC50: > 91.2 µM (inactive)

## CC(Cc1ccccc1)NC=O (stereo not drawn) [FORMETOREX]
Cells [6]
  EC50: > 29.9 µM (inactive)
Cells [7]
  IC50: > 29.9 µM (inactive)
[8]
  IC50: 2.27 µM (active)
[9]
  EC50: 0.576 µM (active)

## O=C(Nc1nc2ccccc2s1)c1ccc2sc([C@H]3C[C@H](O)[C@@H](CO)O3)nc2c1
[10]
  AC50: > 52 µM (inactive)
[11]
  AC50: > 52 µM (inactive)
[12]
  AC50: 18.5 µM (active)
[13]
  AC50: 18.2 µM (active)

## CC(C)c1ccc(Nc2ncc3c(n2)CCN(C(=O)Nc2ccc(F)c(Cl)c2)C3)cc1
Vero
  AC50: 21 µM (active)

## Clc1cccc(CN2CCN(c3ncc(Cc4ccccc4)cn3)CC2)c1Cl
Galanin receptor type 3
  IC50: > 0.369 µM (active)
Cells [14]
  EC50: > 29.9 µM (inactive)

## OCC1OC(n2cnc3c(SCc4ccccc4)ncnc32)C(O)C1O (stereo not drawn)
[4]
  EC50: > 91.3 µM (inactive)
[5]
  EC50: > 91.3 µM (inactive)

## CCCN(CCC)CCCNC(=O)c1ccc(CS(=O)(=O)c2c(Cl)cccc2Cl)o1
[15]
  AC50: > 20 µM (inactive)

## CCN(CCn1cccn1)C(=O)CC1C(=O)NCCN1CCc1ccccc1 (stereo not drawn)
Cells [6]
  EC50: > 29.9 µM (inactive)
Streptokinase A
  EC50: > 150 µM (not active)
Cells [7]
  IC50: > 29.9 µM (inactive)
[8]
  IC50: 2.2 µM (active)
[16]
  EC50: > 150 µM (not active)
Streptococcus
  EC50: > 150 µM (not active)
[9]
  EC50: 1.31 µM (active)

## Cc1cc(Cl)c2oc(C(=O)N(C)CCCCN3CCOCC3)c(C)c2c1
Vero
  AC50: 30.2 µM (active)
